Reference: ChEMBL document CHEMBL1129001, “From indomethacin to a selective COX-2 inhibitor: Development of indolalkanoic acids as potent and selective cyclooxygenase-2 inhibitors” (Bioorg Med Chem Lett, 1996)
pIC50: −log10 of the molar value.

How the values were obtained:
[1] = tested on: Rattus norvegicus; experiment: Compound was evaluated for inhibition of paw edema in rat; assay type: functional
[2] = target: T1, Prostaglandin G/H synthase 1 (Rattus norvegicus, UniProt Q63921)
T1 sequence (Q63921 whole entry): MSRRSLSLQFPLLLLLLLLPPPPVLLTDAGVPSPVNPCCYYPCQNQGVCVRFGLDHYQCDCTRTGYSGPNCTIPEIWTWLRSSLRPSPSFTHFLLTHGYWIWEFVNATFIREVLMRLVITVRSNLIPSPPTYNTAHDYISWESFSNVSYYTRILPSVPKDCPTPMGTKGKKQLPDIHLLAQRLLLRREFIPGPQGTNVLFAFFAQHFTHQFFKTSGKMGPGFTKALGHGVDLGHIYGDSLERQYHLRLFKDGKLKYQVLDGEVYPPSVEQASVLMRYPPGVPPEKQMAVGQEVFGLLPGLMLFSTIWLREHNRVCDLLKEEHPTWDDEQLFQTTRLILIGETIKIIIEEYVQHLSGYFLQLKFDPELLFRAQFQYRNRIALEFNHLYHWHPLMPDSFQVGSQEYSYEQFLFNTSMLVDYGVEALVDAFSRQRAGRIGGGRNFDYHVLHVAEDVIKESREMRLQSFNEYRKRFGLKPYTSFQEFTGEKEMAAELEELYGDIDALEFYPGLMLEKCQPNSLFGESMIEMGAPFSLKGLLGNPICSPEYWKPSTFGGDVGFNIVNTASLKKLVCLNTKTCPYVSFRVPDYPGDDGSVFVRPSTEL
Description: Inhibition of Prostaglandin G/H synthase 1 using whole cell assay

[3] = target: T2, Prostaglandin G/H synthase 2 (Rattus norvegicus, UniProt P35355)
T2 sequence (P35355 whole entry): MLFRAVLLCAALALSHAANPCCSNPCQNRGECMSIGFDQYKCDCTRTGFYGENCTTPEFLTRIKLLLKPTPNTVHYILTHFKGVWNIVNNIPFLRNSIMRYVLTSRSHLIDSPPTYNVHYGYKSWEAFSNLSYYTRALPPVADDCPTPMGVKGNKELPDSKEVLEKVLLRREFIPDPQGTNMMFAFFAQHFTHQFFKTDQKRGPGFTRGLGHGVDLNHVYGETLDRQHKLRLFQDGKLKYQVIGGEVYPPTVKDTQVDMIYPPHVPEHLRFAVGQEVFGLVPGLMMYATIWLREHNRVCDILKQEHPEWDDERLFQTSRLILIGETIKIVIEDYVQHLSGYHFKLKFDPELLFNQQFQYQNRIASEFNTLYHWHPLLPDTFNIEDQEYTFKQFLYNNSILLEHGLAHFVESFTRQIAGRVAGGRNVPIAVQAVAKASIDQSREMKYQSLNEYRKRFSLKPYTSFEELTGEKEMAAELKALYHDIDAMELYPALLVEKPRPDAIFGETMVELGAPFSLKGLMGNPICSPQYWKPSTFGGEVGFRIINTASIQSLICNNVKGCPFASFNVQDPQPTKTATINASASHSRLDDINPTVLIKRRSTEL
Description: Inhibition of Prostaglandin G/H synthase 2

Row | SMILES | ED30 [1] [mg/kg] | pIC50 [2] | pIC50 [3]
1 | COc1ccc2c(c1)c([C@@H](C)[C@@H](C)C(=O)O)c(C)n2Cc1ccc(Br)cc1 | 0.6 | < 4.30 | 7.22
2 | COc1ccc2c(c1)c(CC(=O)O)c(C)n2C(=O)c1ccc(Cl)cc1 [INDOMETHACIN] | 0.9 |  | 
3 | COc1ccc2c(c1)c(CC(C)CC(=O)O)c(C)n2Cc1ccc(Br)cc1 (centres undefined) | 0.4 | < 5.00 | 8.70
4 | COc1ccc2c(c1)c(C(C)CC(=O)O)c(C)n2Cc1ccc(Br)cc1 (centres undefined) | 0.6 | < 4.30 | 8.40
5 | COc1ccc2c(c1)c(C(C)C(=O)O)c(C)n2Cc1ccc(Cl)cc1 (centres undefined) | 3 | 4.96 | 7.70
6 | COc1ccc2c(c1)c(CCC(=O)O)c(C)n2Cc1ccc(Br)cc1 | > 3 | < 4.30 | 8.52
7 | COc1ccc2c(c1)c(CCC(C)C(=O)O)c(C)n2Cc1ccc(Br)cc1 (centres undefined) | 1.6 | < 5.00 | 8.40
8 | COc1ccc2c(c1)c(CC(=O)O)c(C)n2Cc1ccc(Br)cc1 | 0.6 | 4.39 | 8.05
9 | COc1ccc2c(c1)c(CCCC(=O)O)c(C)n2Cc1ccc(Br)cc1 | 1.2 | < 4.30 | 8.22
10 | COc1ccc2c(c1)c(CC(C)C(=O)O)c(C)n2Cc1ccc(Br)cc1 (centres undefined) | 2.6 | < 4.30 | 8.52
11 | COc1ccc2c(c1)c(CC(=O)O)c(C)n2C(=O)c1c(Cl)cc(Cl)cc1Cl | 1.3 | < 4.00 | 6.30
12 | COc1ccc2c(c1)c(CC1(CC(=O)O)CC1)c(C)n2Cc1ccc(Br)cc1 | 0.5 | < 5.00 | 7.80
